Results from US10611750B2, “Tetrahydroquinoline compositions as bet bromodomain inhibitors” (FORMA Therapeutics, Inc., priority 2013, dated 2020).

Legend:
[1] = molecular target: T1, BRD4 Bromodomain 1 (BRD4 BD1) (Homo sapiens, UniProt O60885); assay: AlphaScreen binding assay, BRD4 BD1; details: His-tagged BRD4 BD1 50 nM, biotinylated H4 (1-21) K5/8/12/16 tetra-acetylated peptide 50 nM, compounds listed under IC50 range headings
T1 construct: 44-168 and BRD4 BD2
How it was run: (§1)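 An AlphaScreen competition format was used with His-BRD4 BD1 or BD2 and biotin-H4 K5/8/12/16-acetyl peptide, each at matched final levels of 50 nM (BD1) or 100 nM (BD2). Incubation in HEPES/NaCl buffer with 0.1% BSA and 0.01% Triton X-100 ran ≥1 h before IC50 determination.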

[2] = molecular target: T2, BRD4 Bromodomain 2 (BRD4 BD2) (Homo sapiens, UniProt O60885); assay: AlphaScreen binding assay, BRD4 BD2; details: His-tagged BRD4 BD2 100 nM, biotinylated H4 (1-21) K5/8/12/16 tetra-acetylated peptide 100 nM, compounds listed under IC50 range headings
T2 construct: 333-460 were cloned, expressed, and purified to homogeneity
How it was run: as §1

[3] = tested on: acute myelocytic leukemia (AML) cell line MV4-11; assay: Oncology cell growth assay (3-day proliferation, CellTiter-Glo); type: cell-based; details: Homo sapiens, MV4-11, 72 h, MV4-11 cells, 3000 cells/well, compounds listed under IC50 range headings, read-out: MV411 IC50 (gIC50, inhibition of proliferation)
How it was run: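 A 3-day proliferation test used MV4-11 cells seeded at 3000 per well with eight compound concentrations (10 μM top, 3-fold dilution) at 37° C in 5% CO2. CellTiter-Glo luminescence defined viable cell signal. A four-parameter logistic curve against DMSO and background wells gave the gIC50.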

Structure (SMILES) | IC50 [1] [nM] | IC50 [2] [nM] | IC50 [3] [nM]
CC(=O)N1c2ccc(-c3cnn(C4CCNCC4)c3)c(Oc3ncc(C(F)(F)F)cc3F)c2CC[C@@H]1C [I-521] | 100 to 1000 | < 50 | < 500
CC(=O)N1c2ccc(-c3cnn(C4CCNCC4)c3)c(Oc3ccc(C(N)=O)cn3)c2CC[C@@H]1C [I-523] | 1000 to 10000 | 50 to 500 | > 1000
COC(=O)N1c2ccc(-c3cnn(C4CCNCC4)c3)c(Oc3ccc(C(F)(F)F)cn3)c2CC[C@@H]1C [I-524] | 1000 to 10000 | 50 to 500 | < 500
COC(=O)N1c2ccc(-c3cnn(C4CCNCC4)c3)c(Oc3ncccn3)c2CC[C@@H]1C [I-525] | 1000 to 10000 | 50 to 500 | < 500
COC(=O)N1c2ccc(-c3cnn(C4CCNCC4)c3)c(Oc3cc(N4CCOCC4)ncn3)c2CC[C@@H]1C [I-530] | ≥ 10000 | ≥ 500 | > 1000
COC(=O)N1c2ccc(-c3cnn(C4CCNCC4)c3)c(Oc3ncc(C4CC4)cn3)c2CC[C@@H]1C [I-532] | 1000 to 10000 | 50 to 500 | 500 to 1000
COC(=O)N1c2ccc(-c3cnn(C4CCNCC4)c3)c(Oc3ncc(C(F)(F)F)cc3F)c2CC[C@@H]1C [I-536] | 1000 to 10000 | 50 to 500 | 500 to 1000
COC(=O)N1c2ccc(-c3cnn(C4CCNCC4)c3)c(Oc3ccc(C(N)=O)cn3)c2CC[C@@H]1C [I-538] | 1000 to 10000 | 50 to 500 | > 1000
C[C@H]1CCc2c(ccc(-c3cnn(C4CCNCC4)c3)c2Oc2ncccc2C(F)(F)F)N1C(=O)C1CC1 [I-539] | 1000 to 10000 | 50 to 500 | < 500
CC(=O)N1c2ccc(-c3cnn(CCO)c3)c(Oc3ncc(C(F)(F)F)cn3)c2CC[C@@H]1C [I-542] | 100 to 1000 | 50 to 500 | < 500

More lines, now with the values ahead:

IC50 [1] [nM] | IC50 [2] [nM] | IC50 [3] [nM] | Structure (SMILES)
100 to 1000 | 50 to 500 | < 500 | CC(=O)N1c2ccc(-c3cnn(C4CCNCC4)c3)c(Oc3ncc(C(F)(F)F)cn3)c2CC[C@@H]1C [I-519]
1000 to 10000 | 50 to 500 | > 1000 | CC(=O)N1c2ccc(-c3cnn(C4CCNCC4)c3)c(Oc3ncccc3C(N)=O)c2CC[C@@H]1C [I-520]
1000 to 10000 | 50 to 500 | 500 to 1000 | COC(=O)c1ccc(Oc2c(-c3cnn(C4CCNCC4)c3)ccc3c2CC[C@H](C)N3C(C)=O)nc1 [I-522]
1000 to 10000 | 50 to 500 | < 500 | COC(=O)N1c2ccc(-c3cnn(C4CCNCC4)c3)c(Oc3cnccn3)c2CC[C@@H]1C [I-526]
1000 to 10000 | 50 to 500 | < 500 | COC(=O)N1c2ccc(-c3cnn(C4CCNCC4)c3)c(Oc3ncccc3C(F)(F)F)c2CC[C@@H]1C [I-527]
1000 to 10000 | 50 to 500 | < 500 | COC(=O)N1c2ccc(-c3cnn(C4CCNCC4)c3)c(Oc3nccc(C(F)(F)F)n3)c2CC[C@@H]1C [I-528]
1000 to 10000 | 50 to 500 | < 500 | COC(=O)N1c2ccc(-c3cnn(C4CCNCC4)c3)c(Oc3ccnc(C(F)(F)F)n3)c2CC[C@@H]1C [I-529]
1000 to 10000 | 50 to 500 | < 500 | COC(=O)N1c2ccc(-c3cnn(C4CCNCC4)c3)c(Oc3cc(C4CC4)ncn3)c2CC[C@@H]1C [I-531]
1000 to 10000 | 50 to 500 | < 500 | COC(=O)N1c2ccc(-c3cnn(C4CCNCC4)c3)c(Oc3ncc(F)cn3)c2CC[C@@H]1C [I-533]
1000 to 10000 | 50 to 500 | 500 to 1000 | COC(=O)N1c2ccc(-c3cnn(C4CCNCC4)c3)c(Oc3ncc(C(F)(F)F)cn3)c2CC[C@@H]1C [I-534]
1000 to 10000 | 50 to 500 | < 500 | COC(=O)N1c2ccc(-c3cnn(C4CCNCC4)c3)c(Oc3ncc(C)cn3)c2CC[C@@H]1C [I-535]
1000 to 10000 | 50 to 500 | 500 to 1000 | COC(=O)c1ccc(Oc2c(-c3cnn(C4CCNCC4)c3)ccc3c2CC[C@H](C)N3C(=O)OC)nc1 [I-537]
100 to 1000 | 50 to 500 | < 500 | C[C@H]1CCc2c(ccc(-c3cnn(C4CCNCC4)c3)c2Oc2ncccc2C#N)N1C(=O)C1CC1 [I-540]
1000 to 10000 | 50 to 500 | < 500 | C[C@H]1CCc2c(ccc(-c3cnn(C4CCNCC4)c3)c2Oc2ccc(C(F)(F)F)cn2)N1C(=O)C1CC1 [I-541]
100 to 1000 | 50 to 500 | < 500 | CC(=O)N1c2ccc(-c3cnn(CCO)c3)c(Oc3ncc(F)cn3)c2CC[C@@H]1C [I-543]
